Values joined by “and” are separate entries in the source; they are usually repeats but may differ in a detail not shown here. Equal entries are not always repeated.
Key:
[1] = Enthalpy (heat) of fusion from DSC data; assay type: physicochemical; settings: for Heat of fusion (ΔH), single analyses / Heat of fusion (ΔH), average: DSC 50° C./min; for Heat of fusion (ΔH), average: average of three
Procedure: In Table 4, for Form I, the 26.4 kJ/mol value for the enthalpy of fusion was calculated from a single 10° C./min pattern whereas the 25.6 kJ/mol value was calculated as an average from three 50° C./min patterns. DSC results for Form III indicated a melt onset at 76° C., while HSM results indicated it was 81° C. Material decomposition was observed upon heating above approximately 170° C. The minor weight loss observed up to 150° C. was attributed to loss of residual solvent. FIG. 1 is a DSC stack plot for Forms I-V of Pterostilbene. Differential Scanning Calorimetry (DSC) analyses were performed using a TA Instruments (New Castle, Del.) Q2000 differential scanning calorimeter, equipped with a refrigerated cooling system (RCS). Temperature calibration was performed using NIST traceable indium metal. The sample was placed into an aluminum DSC pan, and the weight was accurately recorded. The pan was covered with a lid perforated with a laser pinhole, and the lid was hermetically sealed. A weighed, crimped aluminum pan was placed on the reference side of the cell. The sample cell was equilibrated at sub-ambient temperature and heated under a nitrogen purge at a rate of 10° C./minute. Higher and lower heating rates were also investigated (from 1 to 300° C./min). Alternatively, data were obtained using a modulation amplitude of +/−0.8° C. and a 60 second period with an underlying heating rate of 2° C./min from −50 to 150° C. The reported glass transition temperatures are obtained from the inflection of the step change in the reversible heat flow versus temperature curve. Thermodynamic stability relationships of various forms of Pterostilbene were studied by calculating the heat of fusion for each form (from DSC data, see table 4) and through slurry interconversion experiments in toluene. Heat of fusion (ΔH) for Form I was determined (from […] DSC data) to be approximately 100 J/g or 25.6 kJ/mol. […] Heat of fusion for Form II was determined (from 10° C./min DSC data) to be approximately 92 J/g or 23.6 kJ/mol. […] Heat of fusion for Form III was estimated (from 50° C./min DSC data) to be approximately 75 J/g or 19.2 kJ/mol.

[2] = Water vapor adsorption/desorption (WVS); assay type: physicochemical; settings: for Sorption (5-95-5% RH): adsorption 5 to 95% RH; for Desorption (5-95-5% RH): desorption 95 to 5% RH
Procedure: Water vapor adsorption/desorption (WVS) data were collected on a VTI SGA-100 Vapor Sorption Analyzer. NaCl and PVP were used as calibration standards. Samples were not dried prior to analysis. Adsorption and desorption data were collected over a range from 5 to 95% RH at 10% RH increments under a nitrogen purge. The equilibrium criterion used for analysis was less than 0.0100% weight change in 5 minutes with a maximum equilibration time of 3 hours if the weight criterion was not met. Data were not corrected for the initial moisture content of the samples.

[3] = Slurry interconversion experiments in toluene (XRPD of recovered solids); assay type: physicochemical; settings: from enthalpy of fusion, melting point and slurry interconversion in toluene
Procedure: Thermodynamic stability relationships of known forms of Pterostilbene were studied by calculating the enthalpy of fusion for each form (from DSC data, Table 4) and through slurry interconversion experiments in toluene in Table 1.
Saturated solutions of Pterostilbene were prepared at ambient temperature in toluene. The solutions were filtered and seeds of each form were added. The samples were agitated for days and the solids recovered by vacuum filtration. The solids were collected and allowed to dry under ambient conditions.

[4] = Intrinsic dissolution rate in water; assay type: physicochemical
Procedure: The polymorphs of Pterostilbene described herein can also be characterized by their respective dissolution rates. […] (open symbols) and 37° C. (filled symbols). […] UV-VIS spectrophotometry: samples were analyzed using a SpectraMax M2 Microplate Reader. Wavelength calibration and photometric accuracy was performed using the SpectraMax […] software as an internal calibration of the instrument. The instrument was blanked with an empty quartz glass plate. Samples were analyzed in the UV range at ambient temperature in the wells of a 96-well quartz plate. The absorbance spectra of water was collected and subtracted from the spectra of the drug solutions to calculate concentrations. Samples were performed in duplicate and absorbance data was averaged. The standard curve was determined based on absorbance at 310 nm.

[5] = Thermogravimetric (TG) analysis; assay type: physicochemical; settings: TGA, up to 150° C., attributed to residual solvent
Procedure: In Table 4, for Form I, the 26.4 kJ/mol value for the enthalpy of fusion was calculated from a single 10° C./min pattern whereas the 25.6 kJ/mol value was calculated as an average from three 50° C./min patterns. DSC results for Form III indicated a melt onset at 76° C., while HSM results indicated it was 81° C. Material decomposition was observed upon heating above approximately 170° C. The minor weight loss observed up to 150° C. was attributed to loss of residual solvent. FIG. 1 is a DSC stack plot for Forms I-V of Pterostilbene.
Thermogravimetric (TG) analyses were performed using a TA Instruments Q5000 IR thermogravimetric analyzer. Temperature calibration was performed using nickel and Alumel. Each sample was placed in an aluminum pan. The pan was hermetically sealed with a lid that was opened using a punching mechanism just before being inserted into the TG furnace. The furnace was heated under nitrogen at a rate of 10° C./minute.

[6] = Stress conditions, stability of Pterostilbene Form II; assay type: physicochemical
Text: Stress conditions were employed to evaluate the stability of Pterostilbene Form II. […] Ambient and elevated temperature water slurry experiments starting with Form II material were set up in an effort to produce a hydrate of Pterostilbene.

[7] = Physical stability of amorphous Pterostilbene under ambient conditions; assay type: physicochemical
Text: FIG. 9 is the x-ray diffraction pattern of x-ray amorphous Pterostilbene. By use the term “x-ray amorphous” what is meant is a material whose powder x-ray powder diffraction pattern is consistent with an amorphous “halo” as that term is understood in the art. By inspection, one of ordinary skill in the art would recognize that the pattern in FIG. 9 does represents a material without any significant crystallinity. However, the material may be nanocrystalline or some other disordered solid. The glass transition temperature of amorphous Pterostilbene was experimentally determined (by modulated DSC) to be approximately 4° C.

[8] = cited from earlier work
[9] = cited from earlier work; remark: listed apart in the source
[10] = DSC 50° C./min (average of three for Forms I and II)

## COc1cc(/C=C/c2ccc(O)cc2)cc(OC)c1 [Form I]
[1]; DSC 10° C./min
  Enthalpy of fusion: ~6.12 kcal/mol and 6.31 kcal/mol
  Heat of fusion (ΔH): approximately 100 J/g
[1]; DSC 10° C./min, listed as I
  Enthalpy of fusion: 6.12 kcal/mol
[1]
  Heat of fusion (ΔH), single analyses: 106 J/g and 102 J/g and 101 J/g
  Heat of fusion (ΔH), average: 103 J/g
[1]; [10]
  Enthalpy of fusion: 6.31 kcal/mol and 6.12 kcal/mol
[1]; DSC 50° C./min (average of three for Forms I and II), listed as I
  Enthalpy of fusion: 6.31 kcal/mol
[2]
  Sorption (5-95-5% RH): 0.2/0.2 weight %
  Desorption (5-95-5% RH): 0.2/0.2 weight %
[3]
  Thermodynamic stability relationship of forms: thermodynamically stable crystal form
[4]; 25° C.
  Intrinsic dissolution rate: 0.83 ± 0.06 μg/cm^−2/min
[4]; 37° C.
  Intrinsic dissolution rate: 2.05 ± 0.03 μg/cm^−2/min
[5]
  % weight loss (at 150° C.): 0.5%

## COc1cc(/C=C/c2ccc(O)cc2)cc(OC)c1 [Form II]
[1]; DSC 10° C./min
  Enthalpy of fusion: ~5.64 kcal/mol
  Heat of fusion (ΔH): approximately 92 J/g
[1]; DSC 10° C./min, listed as II
  Enthalpy of fusion: 5.64 kcal/mol
[1]
  Heat of fusion (ΔH), single analyses: 100 J/g and 91 J/g and 92 J/g
  Heat of fusion (ΔH), average: 94 J/g
[1]; [10]
  Enthalpy of fusion: 5.78 kcal/mol
[1]; DSC 50° C./min (average of three for Forms I and II), listed as II
  Enthalpy of fusion: 5.78 kcal/mol
[2]
  Sorption (5-95-5% RH): 0.2/0.2 weight %
  Desorption (5-95-5% RH): 0.2/0.2 weight %
[3]
  Thermodynamic stability relationship of forms: thermodynamically favored compared to Forms III-V
[4]; 25° C.
  Intrinsic dissolution rate: 0.90 ± 0.03 μg/cm^−2/min
[4]; 37° C.
  Intrinsic dissolution rate: 2.35 ± 0.08 μg/cm^−2/min
[5]
  % weight loss (at 150° C.): 0.2%
[6]
  Organic vapor stress: structurally unchanged
[6]; 80° C. for 3 days
  Heat stress: conversion to Form I
[6]; ambient (air, but not light) exposure, 34 days
  Chemical stability on ambient exposure: chemically unchanged
[6]; ambient (air, but not light) exposure, 70 days
  Structural stability on ambient exposure: structurally unchanged
[6]; ambient and elevated temperature water slurry
  Hydrate formation in water slurry: No hydrate was observed
[6]; ambient and elevated temperatures
  Moderate humidity stress: did not result in deliquescence
[6]; ambient temperature
  Resulting material of water slurry: Form II
[6]; elevated temperature
  Resulting material of water slurry: Form I

## COc1cc(/C=C/c2ccc(O)cc2)cc(OC)c1 [Form III]
[1]
  Heat of fusion (ΔH), single analyses: approximately 75 J/g
[1]; [10]
  Enthalpy of fusion: ~4.59 kcal/mol
[1]; DSC 50° C./min (average of three for Forms I and II), listed as III
  Enthalpy of fusion: 4.59 kcal/mol
[2]
  Sorption (5-95-5% RH): 0.6 weight %
  Desorption (5-95-5% RH): 0.5 weight %
[5]
  % weight loss (at 150° C.): 0.2%

## COc1cc(/C=C/c2ccc(O)cc2)cc(OC)c1 [amorphous Pterostilbene]
[7]
  Physical stability of the amorphous form: rapidly crystallized

## COc1cc(/C=C/c2ccc(O)cc2)cc(OC)c1 [Form V]
[2]; listed as V
  Sorption (5-95-5% RH): 0.8 weight %
  Desorption (5-95-5% RH): 0.5 weight %
[5]; listed as V
  % weight loss (at 150° C.): 0.4%

## COc1cc(/C=C/c2ccc(O)cc2)cc(OC)c1 [Pterostilbene, trans-3,5-dimethoxy-4′-hydroxystilbene]
[8]
  Solubility in water: poor
[9]
  Bioavailability: poor

## COc1cc(/C=C/c2ccc(O)cc2)cc(OC)c1 [Form IV]
[2]; listed as IV
  Sorption (5-95-5% RH): 0.5/0.5 weight %
  Desorption (5-95-5% RH): 0.5/0.5 weight %
[5]; listed as IV
  % weight loss (at 150° C.): 0.2%

— US8524782B2, “Key intermediate for the preparation of Stilbenes, solid forms of Pterostilbene, and methods for making the same” (Laurus Labs Private Limited, priority 2008, dated 2013)
